Measured values reported in patent US20100297109A1, “METHODS FOR INHIBITING FASCIN” (Cornell University, priority 2007, published 2010).

Experiments:
fascin [1] = biological target: T1, fascin (Homo sapiens, UniProt Q16658); assay: Chamber migration of fascin siRNA-treated 4T1 cells rescued with human fascin; assay type: cell-based; set-up: expressed in transfected cells; host or cells: 4T1 mouse mammary tumor cells treated with mouse fascin siRNA 2; settings: human fascin in fascin siRNA-treated 4T1 cells
Description: (§1) Boyden Chamber Cell Migration Assay. Cells (5×10^4) suspended in starvation medium were added to the upper chamber of an insert (6.5 mm diameter, 8-micrometer pore size, Becton Dickenson), and the insert was placed in a 24-well dish containing starvation medium with or without 10% FBS (Yang et al. 2005, Shan et al. 2006). When used, inhibitors were added to both chambers. Migration assays were carried out for 4-6 hours and cells were fixed with 3.7% formaldehyde. Cells were stained with crystal violet staining solution, and cells on the upper side of the insert were removed with a cotton swab. Three randomly selected fields (10× objectives) on the lower side of the insert were photographed, and the migrated cells were counted. The migration was expressed as either the average number of migrated cells in a field or as percentage of migrated cells in positive control. Percentage was calculated with the formula P=100×(M−Mnc)/Mpc, where P is the percentage of migrated cells, M is the number of migrated cells, Mnc is the number of migrated cells in negative controls, and Mpc is the number of migrated cells in positive controls.

[2] = tested on: mouse breast tumor 4T1 cells; assay: Wound-healing assay, serum-induced migration of 4T1 cells; assay type: cell-based; settings: 2 μM
Description: Cells. Mouse 4T1 mammary tumor cells and human MDA-MB-231 breast tumor cells were obtained from ATCC and have been described previously (Shan et al. 2005, Yang et al. 2005). 4T1 cells were cultured in RPMI 1640 medium supplemented with 10% FBS. MDA-MB-231 cells were cultured in DMEM supplemented with 10% FBS. Wound-healing assay. The wound-healing assay involves observing whether confluent cells can migrate across a scrape or wound in the cell layer. Cell migration assays were performed as described previously (Yang et al. 2005, Shan et al 2006). Tumor cells were plated in a 24-well plate coated with gelatin in standard media. After the cells grew to confluence, wounds were made in the confluent layer of cell using a sterile instrument such as a sterile pipette tip. The cells were washed with Phosphate Buffered Saline (PBS) or other sterile solutions and then the migration was induced by adding medium supplemented with 10% FBS. When the wound for the positive control closed, cells were fixed with 3.7% formaldehyde and stained with crystal violet staining solution. […] Photographs several random regions of the filter facing the second chamber are taken and the number of cells counted to calculate the average number of cells that had transmigrated.

villin [3] = biological target: T2, villin (Homo sapiens, UniProt P09327); assay: Migration of fascin siRNA-treated 4T1 cells rescued with villin; assay type: cell-based; set-up: expressed in transfected cells; host or cells: 4T1 mouse mammary tumor cells treated with fascin siRNA; settings: villin over-expression in fascin siRNA-treated 4T1 cells
T2 sequence (P09327 1-827): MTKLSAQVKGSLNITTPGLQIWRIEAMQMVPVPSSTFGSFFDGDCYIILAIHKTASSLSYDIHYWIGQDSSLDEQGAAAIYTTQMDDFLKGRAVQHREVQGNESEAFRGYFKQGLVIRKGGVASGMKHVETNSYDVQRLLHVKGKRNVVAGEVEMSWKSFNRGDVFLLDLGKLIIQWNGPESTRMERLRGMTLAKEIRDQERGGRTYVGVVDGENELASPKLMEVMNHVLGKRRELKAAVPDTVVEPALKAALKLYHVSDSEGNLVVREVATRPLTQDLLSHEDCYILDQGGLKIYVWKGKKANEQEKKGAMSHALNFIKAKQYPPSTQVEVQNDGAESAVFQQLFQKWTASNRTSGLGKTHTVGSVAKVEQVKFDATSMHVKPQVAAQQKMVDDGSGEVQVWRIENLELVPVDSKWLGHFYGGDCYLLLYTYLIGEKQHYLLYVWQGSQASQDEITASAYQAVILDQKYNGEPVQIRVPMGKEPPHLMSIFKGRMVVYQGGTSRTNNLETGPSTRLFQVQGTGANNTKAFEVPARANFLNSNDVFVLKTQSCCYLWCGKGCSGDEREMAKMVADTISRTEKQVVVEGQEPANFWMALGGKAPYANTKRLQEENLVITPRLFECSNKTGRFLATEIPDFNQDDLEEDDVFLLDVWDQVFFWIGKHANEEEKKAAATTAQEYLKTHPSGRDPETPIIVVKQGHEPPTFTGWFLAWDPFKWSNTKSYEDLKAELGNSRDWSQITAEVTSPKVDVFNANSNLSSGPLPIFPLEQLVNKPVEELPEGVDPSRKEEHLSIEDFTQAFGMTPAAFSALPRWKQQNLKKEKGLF
Description: as §1

4T1 cells = settings: serum, Shan et al. 2005; cited from earlier work
fascin [4] = biological target: T1, fascin; assay: F-actin binding assay, high-speed centrifugation; set-up: GST (N); made in house; host or cells: Escherichia coli BL21
villin [5] = biological target: T2, villin; assay: Binding of macroketone to villin in vitro

For `COC1C=CCCCCC(=O)CCC(C)=CC(C)C1O` (stereo not drawn) [macroketone, Migrastatin ketone], the “sensitivity of rescued migration” value (fascin [1]) was “sensitive”, the “inhibition of serum-induced migration (wound-healing)” value [2] was “inhibited the migration” and the “sensitivity of rescued migration” value (villin [3]) was “insensitive”. For the same molecule, the “formation of lamellipodia at the leading edge” value (4T1 cells) was “inhibited the formation of lamellipodia”, the “fascin pulled down by F-actin” value (fascin [4]) was “significantly less fascin was pulled down” and the “binding to villin in vitro” value (villin [5]) was “did not bind”.
